Measured values taken from patent US12474342B2, “Methods for treating cancer and the use of biomarkers as a predictor of clinical sensitivity to therapies” (CELGENE CORPORATION, priority 2016, dated 2025).
Marks after values point to notes of the source that are not given here.

What was measured:
KASUMI-1 cells = experiment: Apoptosis (caspase 3/7 activation), Kasumi-1; type: cell-based, human
ATF4 = ATF4 protein induction, western blot, HNT-34; type: cell-based, human; conditions: HNT-34, 10 nM Compound D
Procedure: The time course of GSPT1 degradation was monitored by western blot analysis of HNT-34 AML cells and normal PBMCs (FIGS. 32A-32D) following incubation with Compound D (1, 10, and 100 nM).

XBP1 = XBP1 assay in U937 cells; type: cell-based, human; conditions: 0.5 μM TG for 6 hours or 4 μM Compound D for 8, 16, or 32 hours
Procedure: IRE1, a kinase that activates the XBP1 pathway, was knocked out in U937 cells by CRISPR-mediated gene editing using IRE1 CRISPR constructs. Wild type U937 cells or IRE1 CRISPR knockout U937 cells were treated with 0.5 μM TG for 6 hours or 4 μM Compound D for 8, 16, or 32 hours, then subject to XBP1 assay.

p-eIF2α = p-eIF2α immunoblot, OCI-AML2; type: cell-based, human; conditions: 300 μg/ml G418 or 200 nM Compound D
Procedure: It is known that amino acid starvation causes GCN2 activation, which phosphorylates eIF2α. Because GSPT1 mediates normal translation termination, it is hypothesized that depletion of GSPT1 by Compound D may cause readthrough of stop codons. Whether the translational readthrough induced by Compound D contributes to the increased levels of p-eIF2α was investigated. OCI-AML2 cells stably expressing the Fluc/Nluc-G36A readthrough reporter were treated with 300 μg/ml G418 or 200 nM Compound D for 2, 4, 6, 8, 10, 12, or 16 hours. The levels of p-eIF2α were measured by immunoblot analysis. AML2 readthrough assay was conducted to measure the readthrough reporter.

GSPT1 [1] = target: T1, GSPT1 (Homo sapiens, UniProt P15170+Q96SW2); experiment: GSPT1 protein reduction, western analysis, F36-P; type: cell-based; set-up: reduction in GSPT1 protein level was evaluated in human normal PBMCs; endogenous in cells; host or cells: primary PBMCs from normal donors (ID 4328, 4379) and AML patients (ID 11SH, 09P6)
T1 sequence (P15170 1-637 isoform P15170-3): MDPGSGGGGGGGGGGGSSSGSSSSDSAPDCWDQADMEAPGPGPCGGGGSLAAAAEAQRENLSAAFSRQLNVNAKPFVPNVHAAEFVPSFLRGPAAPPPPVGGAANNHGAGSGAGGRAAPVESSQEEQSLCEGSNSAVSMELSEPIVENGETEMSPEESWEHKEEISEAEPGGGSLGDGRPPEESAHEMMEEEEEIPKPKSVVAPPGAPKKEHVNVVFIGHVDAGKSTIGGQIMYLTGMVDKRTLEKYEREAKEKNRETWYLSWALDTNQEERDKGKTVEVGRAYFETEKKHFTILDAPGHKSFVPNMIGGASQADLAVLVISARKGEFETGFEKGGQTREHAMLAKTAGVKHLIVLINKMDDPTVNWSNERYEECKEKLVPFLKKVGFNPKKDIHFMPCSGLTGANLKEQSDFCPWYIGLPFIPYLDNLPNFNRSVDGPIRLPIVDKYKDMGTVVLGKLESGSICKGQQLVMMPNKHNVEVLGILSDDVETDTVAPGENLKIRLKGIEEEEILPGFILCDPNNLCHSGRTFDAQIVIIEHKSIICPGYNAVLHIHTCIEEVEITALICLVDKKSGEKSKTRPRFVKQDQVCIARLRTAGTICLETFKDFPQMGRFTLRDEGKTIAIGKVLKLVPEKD
T1 sequence (Q96SW2 whole entry): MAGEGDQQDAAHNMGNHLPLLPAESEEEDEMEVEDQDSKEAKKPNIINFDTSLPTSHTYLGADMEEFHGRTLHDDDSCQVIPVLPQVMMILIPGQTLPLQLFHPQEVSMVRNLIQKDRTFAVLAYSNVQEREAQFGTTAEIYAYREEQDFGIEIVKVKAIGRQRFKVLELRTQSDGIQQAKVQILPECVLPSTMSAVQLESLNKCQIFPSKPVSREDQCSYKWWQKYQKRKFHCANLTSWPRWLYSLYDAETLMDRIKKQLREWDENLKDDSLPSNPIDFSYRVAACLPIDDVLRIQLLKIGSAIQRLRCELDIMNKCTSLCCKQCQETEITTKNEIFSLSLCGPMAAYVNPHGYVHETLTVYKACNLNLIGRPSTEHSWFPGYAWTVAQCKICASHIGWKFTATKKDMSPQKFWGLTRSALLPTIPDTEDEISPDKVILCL
T1 sequence (Q16531 whole entry partner): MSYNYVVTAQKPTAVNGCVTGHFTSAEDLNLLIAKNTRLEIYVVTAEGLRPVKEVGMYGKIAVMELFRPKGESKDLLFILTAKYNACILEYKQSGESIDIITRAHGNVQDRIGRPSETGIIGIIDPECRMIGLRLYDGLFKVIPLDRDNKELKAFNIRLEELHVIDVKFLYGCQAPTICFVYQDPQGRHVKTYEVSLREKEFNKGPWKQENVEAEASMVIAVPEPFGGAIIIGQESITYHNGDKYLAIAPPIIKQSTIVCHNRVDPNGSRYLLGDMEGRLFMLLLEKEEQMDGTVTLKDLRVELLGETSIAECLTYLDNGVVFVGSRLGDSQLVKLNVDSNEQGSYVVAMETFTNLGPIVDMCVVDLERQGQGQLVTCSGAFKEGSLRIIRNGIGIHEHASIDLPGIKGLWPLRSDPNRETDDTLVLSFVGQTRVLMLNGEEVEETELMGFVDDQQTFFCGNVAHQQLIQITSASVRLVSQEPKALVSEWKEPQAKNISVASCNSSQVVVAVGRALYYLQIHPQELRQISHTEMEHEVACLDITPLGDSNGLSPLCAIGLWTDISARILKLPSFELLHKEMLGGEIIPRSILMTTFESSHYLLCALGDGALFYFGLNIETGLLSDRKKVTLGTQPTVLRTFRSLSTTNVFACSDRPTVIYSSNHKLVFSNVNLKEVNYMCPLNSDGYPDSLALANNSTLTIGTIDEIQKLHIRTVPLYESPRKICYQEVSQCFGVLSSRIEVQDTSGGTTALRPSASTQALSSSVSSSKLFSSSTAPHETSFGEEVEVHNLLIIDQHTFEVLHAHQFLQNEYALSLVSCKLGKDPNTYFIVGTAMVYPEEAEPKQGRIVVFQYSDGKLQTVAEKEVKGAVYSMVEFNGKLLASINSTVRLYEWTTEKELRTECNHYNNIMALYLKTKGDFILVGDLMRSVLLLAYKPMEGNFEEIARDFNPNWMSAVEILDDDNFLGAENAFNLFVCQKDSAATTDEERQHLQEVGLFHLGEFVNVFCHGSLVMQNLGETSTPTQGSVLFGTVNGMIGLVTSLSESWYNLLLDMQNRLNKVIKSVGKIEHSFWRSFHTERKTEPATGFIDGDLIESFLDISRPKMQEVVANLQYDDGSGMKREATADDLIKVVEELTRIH
Procedure: The time course of the reduction in GSPT1 by Compound D also was studied for up to 48 hours. The progressive degradation of GSPT1 over the course of 1 to 20 hours was evident in the presence of all concentrations of Compound D studied from 3 to 300 nM in HNT-34, HL-60, and ML-2 cells, with little GSPT1 remaining by 20 hours at 100 or 300 nM Compound D in HNT-34 or HL-60 cells (FIG. 34 and FIG. 35C). Time-dependent reduction in GSPT1 was also observed in KG-1 and OCI-AML2 cells at 3 to 1000 nM Compound D, with little GSPT1 remaining in KG-1 cells at 100 to 300 nM at 24 hours or in OCI-AML2 cells at 300 and 1000 nM at 24 hours (FIG. 35D). Loss of GSPT1 occurred more slowly in Kasumi-1, AML-193, and […] cells. […] A positive association (r^2=0.50; […]

GSPT1 [2] = target: T1, GSPT1; experiment: GSPT1 protein reduction, western analysis, KG-1; type: cell-based; set-up: reduction in GSPT1 protein level was evaluated in human normal PBMCs; endogenous in cells; host or cells: primary PBMCs from normal donors (ID 4328, 4379) and AML patients (ID 11SH, 09P6)
Procedure: Cells were treated with DMSO alone, 200 nM Compound D, or 200 nM Compound E. After 8 or 12 hours, the expression levels of various cellular components along UPR or apoptosis pathways were measured. […] Reduction of BIP indicates UPR.
To further investigate the timeline of cellular events upon Compound D treatment, KG1 cells were treated with DMSO alone or 200 nM Compound D. At 2, 4, 6, 8, 10, or 12 hours, the expression levels of various cellular components along ATF4 or apoptosis pathways were measured.
In two sensitive AML cell lines, KG-1 and HL-60, both a concentration-dependent decrease in GSPT1 protein and an increase in RNA expression of ATF3, CHOP, and SRSF3 and SRSF6 NMD transcripts at the 8-hour time point were compared to caspase 3/7 activation (apoptosis) at the 24-hour (FIG. 30A [KG-1]; FIG. 30C [HL-60]) and 48-hour (FIG. 30B [KG-1]; FIG. 30D [HL-60]) time points.
The reduction in the level of GSPT1 protein was concentration-dependent over the range of 3 to 1000 nM in eight of the nine AML cell lines and over the range of 300 to 1000 nM in one relatively insensitive AML cell line. The time course of the reduction in GSPT1 by Compound D also was studied for up to 48 hours. The progressive degradation of GSPT1 over the course of 1 to 20 hours was evident in the presence of all concentrations of Compound D studied from 3 to 300 nM in HNT-34, HL-60, and ML-2 cells, with little GSPT1 remaining by 20 hours at 100 or 300 nM Compound D in HNT-34 or HL-60 cells (FIG. 34 and FIG. 35C). Time-dependent reduction in GSPT1 was also observed in KG-1 and OCI-AML2 cells at 3 to 1000 nM Compound D, with little GSPT1 remaining in KG-1 cells at 100 to 300 nM at 24 hours or in OCI-AML2 cells at 300 and 1000 nM at 24 hours (FIG. 35D). Loss of GSPT1 occurred more slowly in Kasumi-1, AML-193, and F36-P cells.
Compound D-mediated GSPT1 reduction at 8 hours was compared to induction of caspase 3/7 activation (apoptosis) at 12, 24, and 48 hour time points in these nine AML cell lines. […] A positive association (r^2=0.50; R=0.71; p value=4.86E-002) was observed between the level of GSPT1 reduction and apoptosis induction in the AML cell panel (FIG. 36), with >90% GSPT1 reduction correlating with induction of apoptosis.

## O=C1CCC(N2Cc3cc(CNC(=O)C(F)(F)c4ccc(Cl)cc4)ccc3C2=O)C(=O)N1 (stereo not shown) [Compound D, 2-(4-chlorophenyl)-N-((2-(2,6-dioxopiperidin-3-yl)-1-oxoisoindolin-5-yl)methyl)-2,2-difluoroacetamide]
KASUMI-1 cells; Homo sapiens, read-out: Compound D-induced Apoptosis EC50, Kasumi-1, 96 hr
  EC50: 55 nM
KASUMI-1 cells; Kasumi-1, 123 nM, 12 hr
  Average Percent Increase in Apoptosis at 123 nM Compound D, Apoptosis (12 hr): 1%
KASUMI-1 cells; Kasumi-1, 123 nM, 24 hr
  Average Percent Increase in Apoptosis at 123 nM Compound D, Apoptosis (24 hr): 3%
KASUMI-1 cells; Kasumi-1, 123 nM, 48 hr
  Average Percent Increase in Apoptosis at 123 nM Compound D, Apoptosis (48 hr): 18%
ATF4
  time of induction of ATF4 protein: 8 h
XBP1
  XBP1 pathway: activated the XBP1 pathway
p-eIF2α
  levels of p-eIF2α: increased the levels
GSPT1 [1]; 100 nM, 8 hr, change not concentration-dependent at the 8-hour time point
  Percent Reduction at 100 nM Compound D GSPTI (8 hr): 39^a %
GSPT1 [1]; 300 nM Compound D, 8 hours
  GSPT1 reduction: 18%
GSPT1 [2]; KG1, 200 nM
  time of GSPT1 degradation: ≤ 2 h
GSPT1 [2]; KG1, 200 nM, 8 or 12 hours
  degradation of GSPT1: induced degradation
GSPT1 [2]; KG-1, 100 nM Compound D, 4 hours
  reduction of GSPT1 protein levels: greater than 800
GSPT1 [2]; KG-1, 100 nM or greater, 8-hour time point
  reduction of GSPT1 protein levels: > 90%
